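96-well plates; 48 h exposure; 5 concentrations. Endpoints by linear interpolation between flanking doses. Not reached: highest tested concentration assigned. TGI marks complete inhibition of growth.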
Experiments:
Experiment in all cases: NCI anticancer screen, dose series, 48 h
786-0 renal = test system: 786-0 renal
A498 renal = test system: A498 renal
A549 NSCLC = test system: A549 NSCLC
ACHN renal = test system: ACHN renal
CAKI-1 renal = test system: CAKI-1 renal
CCRF-CEM leukemia = test system: CCRF-CEM leukemia
COLO 205 colon = test system: COLO 205 colon
DLD-1 colon = test system: DLD-1 colon
DMS 273 small cell lung = test system: DMS 273 small cell lung
EKVX NSCLC = test system: EKVX NSCLC
HCC-2998 colon = test system: HCC-2998 colon
HCT-15 colon = test system: HCT-15 colon
HL-60(TB) leukemia = test system: HL-60(TB) leukemia
HOP-18 NSCLC = test system: HOP-18 NSCLC
HOP-92 NSCLC = test system: HOP-92 NSCLC
HT29 colon = test system: HT29 colon
IGROV1 ovarian = test system: IGROV1 ovarian
K-562 leukemia = test system: K-562 leukemia
KM12 colon = test system: KM12 colon
LOX IMVI melanoma = test system: LOX IMVI melanoma
LXFL 529 NSCLC = test system: LXFL 529 NSCLC
M14 melanoma = test system: M14 melanoma
M19-MEL melanoma = test system: M19-MEL melanoma
MALME-3M melanoma = test system: MALME-3M melanoma
MOLT-4 leukemia = test system: MOLT-4 leukemia
NCI-H23 lung = test system: NCI-H23 lung
NCI-H460 lung = test system: NCI-H460 lung
NCI-H522 lung = test system: NCI-H522 lung
OVCAR-3 ovarian = test system: OVCAR-3 ovarian
OVCAR-4 ovarian = test system: OVCAR-4 ovarian
OVCAR-5 ovarian = test system: OVCAR-5 ovarian
OVCAR-8 ovarian = test system: OVCAR-8 ovarian
RPMI-8226 leukemia = test system: RPMI-8226 leukemia
RXF 393 renal = test system: RXF 393 renal
SF-268 CNS = test system: SF-268 CNS
SF-295 CNS = test system: SF-295 CNS
SF-539 CNS = test system: SF-539 CNS
SK-MEL-2 melanoma = test system: SK-MEL-2 melanoma
SK-MEL-28 melanoma = test system: SK-MEL-28 melanoma
SK-MEL-5 melanoma = test system: SK-MEL-5 melanoma
SK-OV-3 ovarian = test system: SK-OV-3 ovarian
SN12C renal = test system: SN12C renal
SNB-19 CNS = test system: SNB-19 CNS
SNB-75 CNS = test system: SNB-75 CNS
SW-620 colon = test system: SW-620 colon
TK-10 renal = test system: TK-10 renal
U251 CNS = test system: U251 CNS
UACC-257 melanoma = test system: UACC-257 melanoma
UACC-62 melanoma = test system: UACC-62 melanoma
UO-31 renal = test system: UO-31 renal
XF 498 CNS = test system: XF 498 CNS

CCCCCCCCCCSC(=O)NC
TGI (786-0 renal): > 100 µM
TGI (A498 renal): > 100 µM
TGI (A549 NSCLC): > 100 µM
TGI (ACHN renal): > 100 µM
TGI (CAKI-1 renal): > 100 µM
TGI (CCRF-CEM leukemia): 48.3 µM
TGI (COLO 205 colon): > 100 µM
TGI (DLD-1 colon): > 100 µM
TGI (DMS 273 small cell lung): > 100 µM
TGI (EKVX NSCLC): 71.4 µM
TGI (HCC-2998 colon): > 100 µM
TGI (HCT-15 colon): 54.8 µM
TGI (HL-60(TB) leukemia): 39.9 µM
TGI (HOP-18 NSCLC): > 100 µM
TGI (HOP-92 NSCLC): 57.8 µM
TGI (HT29 colon): 77 µM
TGI (IGROV1 ovarian): > 100 µM
TGI (K-562 leukemia): 67.7 µM
TGI (KM12 colon): > 100 µM
TGI (LOX IMVI melanoma): > 100 µM
TGI (LXFL 529 NSCLC): > 100 µM
TGI (M14 melanoma): 50 µM
TGI (M19-MEL melanoma): > 100 µM
TGI (MALME-3M melanoma): > 100 µM
TGI (MOLT-4 leukemia): 46.5 µM
TGI (NCI-H23 lung): 99.8 µM
TGI (NCI-H460 lung): > 100 µM
TGI (NCI-H522 lung): 54.6 µM
TGI (OVCAR-3 ovarian): > 100 µM
TGI (OVCAR-4 ovarian): > 100 µM
TGI (OVCAR-5 ovarian): > 100 µM
TGI (OVCAR-8 ovarian): 87.7 µM
TGI (RPMI-8226 leukemia): 48.8 µM
TGI (RXF 393 renal): 44.1 µM
TGI (SF-268 CNS): > 100 µM
TGI (SF-295 CNS): > 100 µM
TGI (SF-539 CNS): > 100 µM
TGI (SK-MEL-2 melanoma): 69 µM
TGI (SK-MEL-28 melanoma): 68.4 µM
TGI (SK-MEL-5 melanoma): 45.6 µM
TGI (SK-OV-3 ovarian): > 100 µM
TGI (SN12C renal): 74.4 µM
TGI (SNB-19 CNS): > 100 µM
TGI (SNB-75 CNS): > 100 µM
TGI (SW-620 colon): > 100 µM
TGI (TK-10 renal): > 100 µM
TGI (U251 CNS): 68.4 µM
TGI (UACC-257 melanoma): 85 µM
TGI (UACC-62 melanoma): > 100 µM
TGI (UO-31 renal): > 100 µM
TGI (XF 498 CNS): 54 µM
